In patent US11919888B2, “Neprilysin inhibitors” (THERAVANCE BIOPHARMA R&D IP, LLC, priority 2012, dated 2024):

The compounds below were run against T1, human NEP (Homo sapiens, UniProt P08473) (assay: In vitro enzyme inhibition assay at human NEP (fluorogenic peptide substrate)). Details: recombinant human NEP; 10 μM fluorogenic substrate Mca-D-Arg-Arg-Leu-Dap-(Dnp)-OH; 37° C.; 30 minute preincubation; read-out: pKi value at human NEP (converted).
T1 construct: purchased R&D Systems, Minneapolis, MN 1182-ZN
T1 sequence (P08473 52-750 limits assumed): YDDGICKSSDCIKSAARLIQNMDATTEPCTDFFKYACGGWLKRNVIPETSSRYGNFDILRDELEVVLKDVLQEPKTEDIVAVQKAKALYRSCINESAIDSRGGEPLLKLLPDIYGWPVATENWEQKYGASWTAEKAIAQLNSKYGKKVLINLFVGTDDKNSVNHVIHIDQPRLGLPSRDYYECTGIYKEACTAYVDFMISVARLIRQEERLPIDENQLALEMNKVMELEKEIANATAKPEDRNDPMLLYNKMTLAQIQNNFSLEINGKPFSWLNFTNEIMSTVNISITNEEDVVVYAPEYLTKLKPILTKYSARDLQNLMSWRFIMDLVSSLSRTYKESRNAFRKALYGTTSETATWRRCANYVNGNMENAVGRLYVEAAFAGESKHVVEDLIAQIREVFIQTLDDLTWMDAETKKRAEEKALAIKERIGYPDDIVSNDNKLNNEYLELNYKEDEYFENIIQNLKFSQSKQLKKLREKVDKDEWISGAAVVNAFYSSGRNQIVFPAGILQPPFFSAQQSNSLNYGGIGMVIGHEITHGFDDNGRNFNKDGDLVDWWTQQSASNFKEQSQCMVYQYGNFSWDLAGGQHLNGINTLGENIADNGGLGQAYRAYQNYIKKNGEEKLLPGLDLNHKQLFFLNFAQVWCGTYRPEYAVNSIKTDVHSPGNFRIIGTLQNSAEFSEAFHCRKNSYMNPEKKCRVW
Type: biochemical
Method: In Vitro Assays for the Quantitation of Inhibitor Potencies (IC50) at Human and Rat NEP, and Human ACE
The inhibitory activities of compounds at human and rat neprilysin (EC 3.4.24.11; NEP) and human angiotensin converting enzyme (ACE) were determined using in vitro assays as described below.
Recombinant human NEP and recombinant human ACE were obtained commercially (R&D Systems, Minneapolis, MN, catalog numbers 1182-ZN and 929-ZN, respectively). The fluorogenic peptide substrate Mca-D-Arg-Arg-Leu-Dap-(Dnp)-OH (Medeiros et al. (1997) Braz. J. Med. Biol. Res. 30:1157-62; Anaspec, San Jose, CA) and Abz-Phe-Arg-Lys(Dnp)-Pro-OH (Araujo et al. (2000) Biochemistry 39:8519-8525; Bachem, Torrance, CA) were used in the NEP and ACE assays respectively.
The assays were performed in 384-well white opaque plates at 37° C. using the fluorogenic peptide substrates at a concentration of 10 μM in Assay Buffer (NEP: 50 mM HEPES, pH 7.5, 100 mM NaCl, 0.01% polyethylene glycol sorbitan monolaurate (Tween-20), 10 μM ZnSO4; ACE: 50 mM HEPES, pH 7.5, 100 mM NaCl, 0.01% Tween-20, 1 μM ZnSO4).
Test compounds were assayed over the range of concentrations from 10 μM to 20 pM. Test compounds were added to the enzymes and incubated for 30 minute at 37° C. prior to initiating the reaction by the addition of substrate. Reactions were terminated after 20 minutes of incubation at 37° C. by the addition of glacial acetic acid to a final concentration of 3.6% (v/v).
Plates were read on a fluorometer with excitation and emission wavelengths set to 320 nm and 405 nm, respectively. Inhibition constants were obtained by nonlinear regression of the data using the equation (GraphPad Software, Inc., San Diego, CA): ν=ν0/[1+(I/K′)] where ν is the reaction rate, ν0 is the uninhibited reaction rate, I is the inhibitor concentration and K′ is the apparent inhibition constant.

| Compound | Ki |
| --- | --- |
| C[C@@](CO)(C[C@@H](Cc1ccc(-c2cc(Cl)ccc2F)cc1)NC(=O)c1coc(=O)[nH]1)C(=O)O [Example 5C, (2S,4R)-5-(5′-Chloro-2′-fluorobiphenyl-4-yl)-2-hydroxymethyl-2-methyl-4-[(2-oxo-2,3-dihydro-oxazole-4-carbonyl)amino]pentanoic Acid] | ≤ 1 nM |
| C[C@@](CO)(C[C@@H](Cc1ccc(-c2cc(Cl)ccc2F)cc1)NC(=O)c1c[nH]c(=O)o1)C(=O)O [Example 5D, (2S,4R)-5-(5′-Chloro-2′-fluorobiphenyl-4-yl)-2-hydroxymethyl-2-methyl-4-[(2-oxo-2,3-dihydro-oxazole-5-carbonyl)amino]pentanoic Acid] | ≤ 1 nM |
| COc1cc(C(=O)N[C@H](Cc2ccc(-c3cccc(Cl)c3)cc2)C[C@@](C)(CO)C(=O)O)on1 [Example 6A, (2S,4R)-5-(3′-Chlorobiphenyl-4-yl)-2-hydroxymethyl-4-[(3-methoxyisoxazole-5-carbonyl)amino]-2-methylpentanoic Acid] | ≤ 1 nM |
| COC[C@](C)(C[C@@H](Cc1ccc(-c2cccc(Cl)c2)cc1)NC(=O)c1cc(OC)no1)C(=O)O [Example 6B, (2S,4R)-5-(3′-Chlorobiphenyl-4-yl)-4-[(3-methoxyisoxazole-5-carbonyl)amino]-2-methoxymethyl-2-methylpentanoic Acid] | 10 to 100 nM |
| COc1cc(C(=O)N[C@H](Cc2ccc(-c3cc(Cl)ccc3F)cc2)C[C@@](C)(CO)C(=O)O)on1 [Example 6G, (2S,4R)-5-(5′-Chloro-2′-fluorobiphenyl-4-yl)-2-hydroxymethyl-4-[(3-methoxyisoxazole-5-carbonyl)amino]-2-methylpentanoic Acid] | ≤ 1 nM |
| CCc1cc(C(=O)N[C@H](Cc2ccc(-c3cc(Cl)ccc3F)cc2)C[C@@](C)(CO)C(=O)O)on1 [Example 6H] | ≤ 1 nM |
| CC(C)Cc1cc(C(=O)N[C@H](Cc2ccc(-c3cc(Cl)ccc3F)cc2)C[C@@](C)(CO)C(=O)O)on1 [Example 6I, (2S,4R)-5-(5′-Chloro-2′-fluorobiphenyl-4-yl)-2-hydroxymethyl-4-[(3-isobutylisoxazole-5-carbonyl)amino]-2-methylpentanoic Acid] | ≤ 1 nM |
| CCCc1cc(C(=O)N[C@H](Cc2ccc(-c3cc(Cl)ccc3F)cc2)C[C@@](C)(CO)C(=O)O)on1 [Example 6J, (2S,4R)-5-(5′-Chloro-2′-fluorobiphenyl-4-yl)-2-hydroxymethyl-2-methyl-4-[(3-propylisoxazole-5-carbonyl)amino]pentanoic Acid] | ≤ 1 nM |
| COC[C@](C)(C[C@@H](Cc1ccc(-c2cc(Cl)ccc2F)cc1)NC(=O)c1cc(O)no1)C(=O)O [Example 6K, (2S,4R)-5-(5′-Chloro-2′-fluorobiphenyl-4-yl)-4-[(3-hydroxyisoxazole-5-carbonyl)amino]-2-methoxymethyl-2-methylpentanoic Acid] | 1 to 3.16 nM |
| C[C@@](COCCO)(C[C@@H](Cc1ccc(-c2cccc(Cl)c2)cc1)NC(=O)c1cc(O)no1)C(=O)O [Example 6L, (2S,4R)-5-(3′-Chlorobiphenyl-4-yl)-2-(2-hydroxyethoxymethyl)-4-[(3-hydroxyisoxazole-5-carbonyl)amino]-2-methylpentanoic Acid] | ≤ 1 nM |
| CCOC[C@](C)(C[C@@H](Cc1ccc(-c2cccc(Cl)c2)cc1)NC(=O)c1cc(O)no1)C(=O)O [Example 6M] | ≤ 1 nM |
| CCOC[C@](C)(C[C@@H](Cc1ccc(-c2cc(Cl)ccc2F)cc1)NC(=O)c1cc(O)no1)C(=O)O [Example 6N, (2S,4R)-5-(5′-Chloro-2′-fluorobiphenyl-4-yl)-2-ethoxymethyl-4-[(3-hydroxyisoxazole-5-carbonyl)amino]-2-methylpentanoic Acid] | ≤ 1 nM |
| CCOC[C@](C)(C[C@@H](Cc1ccc(-c2cc(Cl)ccc2F)cc1)NC(=O)c1cc(CC)no1)C(=O)O [Example 6O, (2S,4R)-5-(5′-Chloro-2′-fluorobiphenyl-4-yl)-2-ethoxymethyl-4-[(3-ethylisoxazole-5-carbonyl)amino]-2-methylpentanoic Acid] | ≤ 1 nM |
| CCOc1cc(C(=O)N[C@H](Cc2ccc(-c3cccc(Cl)c3)cc2)C[C@@](C)(CO)C(=O)O)n[nH]1 [Example 7A, (2S,4R)-5-(3′-Chlorobiphenyl-4-yl)-4-[(5-ethoxy-1H-pyrazole-3-carbonyl)amino]-2-hydroxymethyl-2-methylpentanoic Acid] | ≤ 1 nM |
| CCOc1cc(C(=O)N[C@H](Cc2ccc(-c3cc(Cl)ccc3F)cc2)C[C@@](C)(CO)C(=O)O)n[nH]1 [Example 7B, (2S,4R)-5-(5′-Chloro-2′-fluorobiphenyl-4-yl)-4-[(5-ethoxy-1H-pyrazole-3-carbonyl)-amino]-2-hydroxymethyl-2-methylpentanoic Acid] | ≤ 1 nM |
| CC(C)c1cc(C(=O)N[C@H](Cc2ccc(-c3cc(Cl)ccc3F)cc2)C[C@@](C)(CO)C(=O)O)[nH]n1 [Example 7C, (2S,4R)-5-(5′-Chloro-2′-fluorobiphenyl-4-yl)-2-hydroxymethyl-4-[(5-isopropyl-2H-pyrazole-3-carbonyl)amino]-2-methylpentanoic Acid] | ≤ 1 nM |
| CCOc1cc(C(=O)N[C@H](Cc2ccc(-c3cc(Cl)ccc3F)cc2)C[C@@](C)(COC)C(=O)O)[nH]n1 [Example 7D, (2S,4R)-5-(5′-Chloro-2′-fluorobiphenyl-4-yl)-4-[(5-ethoxy-2H-pyrazole-3-carbonyl)-amino]-2-methoxymethyl-2-methylpentanoic Acid] | 1 to 3.16 nM |
| COc1cc(C(=O)N[C@H](Cc2ccc(-c3cc(Cl)ccc3F)cc2)C[C@@](C)(CO)C(=O)O)n[nH]1 [Example 7E, (2S,4R)-5-(5′-Chloro-2′-fluorobiphenyl-4-yl)-2-hydroxymethyl-4-[(5-methoxy-1H-pyrazole-3-carbonyl)amino]-2-methylpentanoic Acid] | ≤ 1 nM |
| CC(C)Cc1cc(C(=O)N[C@H](Cc2ccc(-c3cc(Cl)ccc3F)cc2)C[C@@](C)(CO)C(=O)O)[nH]n1 [Example 7F, (2S,4R)-5-(5′-Chloro-2′-fluorobiphenyl-4-yl)-2-hydroxymethyl-4-[(5-isobutyl-2H-pyrazole-3-carbonyl)amino]-2-methylpentanoic Acid] | ≤ 1 nM |
| CC(=O)c1cc(C(=O)N[C@H](Cc2ccc(-c3cc(Cl)ccc3F)cc2)C[C@@](C)(CO)C(=O)O)[nH]n1 [Example 8A, (2S,4R)-4-[(5-Acetyl-2H-pyrazole-3-carbonyl)amino]-5-(5′-chloro-2′-fluorobiphenyl-4-yl)-2-hydroxymethyl-2-methylpentanoic Acid] | ≤ 1 nM |
| COC[C@](C)(C[C@@H](Cc1ccc(-c2cc(Cl)ccc2F)cc1)NC(=O)c1cc(C(C)=O)n[nH]1)C(=O)O [Example 8B, (2S,4R)-4-[(5-Acetyl-2H-pyrazole-3-carbonyl)amino]-5-(5′-chloro-2′-fluorobiphenyl-4-yl)-2-methoxymethyl-2-methylpentanoic Acid] | 1 to 3.16 nM |
| CCOC[C@](C)(C[C@@H](Cc1ccc(-c2cc(Cl)ccc2F)cc1)NC(=O)c1cc(C(C)=O)[nH]n1)C(=O)O [Example 8C, (2S,4R)-4-[(5-Acetyl-1H-pyrazole-3-carbonyl)amino]-5-(5′-chloro-2′-fluorobiphenyl-4-yl)-2-ethoxymethyl-2-methylpentanoic Acid] | ≤ 1 nM |
